Results: paper PMC5512571 (Cancer cell, 2017)

How the values were obtained:
Test in all cases: in vitro kinase panel profiling
Format in all cases: biochemical
JAK2 = JAK2 (Homo sapiens, UniProt O60674)
FLT3 = FLT3 (Homo sapiens, UniProt P36888)
TNK1 = biological target: T1, TNK1 (Homo sapiens, UniProt Q13470)
T1 sequence (Q13470 1-666): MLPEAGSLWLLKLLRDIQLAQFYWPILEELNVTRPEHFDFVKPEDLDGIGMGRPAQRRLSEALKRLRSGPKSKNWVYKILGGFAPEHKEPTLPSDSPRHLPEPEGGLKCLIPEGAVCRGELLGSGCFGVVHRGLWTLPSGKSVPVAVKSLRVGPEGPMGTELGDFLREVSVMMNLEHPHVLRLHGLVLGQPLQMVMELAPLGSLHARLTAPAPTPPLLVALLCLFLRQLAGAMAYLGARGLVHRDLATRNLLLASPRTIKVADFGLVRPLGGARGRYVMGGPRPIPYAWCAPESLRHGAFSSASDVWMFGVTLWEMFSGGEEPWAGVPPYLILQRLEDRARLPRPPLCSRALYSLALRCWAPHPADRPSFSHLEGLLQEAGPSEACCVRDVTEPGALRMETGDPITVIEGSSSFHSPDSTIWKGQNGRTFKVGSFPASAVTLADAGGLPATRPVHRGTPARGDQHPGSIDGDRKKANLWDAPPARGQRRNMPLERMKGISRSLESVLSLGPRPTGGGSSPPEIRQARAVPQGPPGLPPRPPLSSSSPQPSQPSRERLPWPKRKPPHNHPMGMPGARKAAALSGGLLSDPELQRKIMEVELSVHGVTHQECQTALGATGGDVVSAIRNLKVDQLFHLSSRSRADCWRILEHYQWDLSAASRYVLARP

NUAK2 = biological target: T2, NUAK2 (Homo sapiens, UniProt Q9H093)
T2 sequence (Q9H093 1-628): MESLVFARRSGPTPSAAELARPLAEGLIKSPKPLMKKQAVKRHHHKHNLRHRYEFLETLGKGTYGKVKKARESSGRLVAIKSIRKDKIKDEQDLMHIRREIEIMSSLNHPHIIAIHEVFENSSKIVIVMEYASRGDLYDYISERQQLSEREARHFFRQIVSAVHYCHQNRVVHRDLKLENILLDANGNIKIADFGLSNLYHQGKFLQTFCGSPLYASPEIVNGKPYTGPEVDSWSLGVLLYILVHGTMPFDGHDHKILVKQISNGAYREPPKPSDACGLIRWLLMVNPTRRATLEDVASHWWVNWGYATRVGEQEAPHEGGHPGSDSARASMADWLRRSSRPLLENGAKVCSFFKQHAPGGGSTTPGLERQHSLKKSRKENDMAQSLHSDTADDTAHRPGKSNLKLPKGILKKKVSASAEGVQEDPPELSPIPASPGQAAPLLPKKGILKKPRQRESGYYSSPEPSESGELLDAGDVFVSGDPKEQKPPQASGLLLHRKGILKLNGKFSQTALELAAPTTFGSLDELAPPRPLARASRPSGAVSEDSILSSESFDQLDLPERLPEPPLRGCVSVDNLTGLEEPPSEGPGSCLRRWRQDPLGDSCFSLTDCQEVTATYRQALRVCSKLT

JAK3 = biological target: T3, JAK3 (Homo sapiens, UniProt P52333)
T3 sequence (P52333 1-1124): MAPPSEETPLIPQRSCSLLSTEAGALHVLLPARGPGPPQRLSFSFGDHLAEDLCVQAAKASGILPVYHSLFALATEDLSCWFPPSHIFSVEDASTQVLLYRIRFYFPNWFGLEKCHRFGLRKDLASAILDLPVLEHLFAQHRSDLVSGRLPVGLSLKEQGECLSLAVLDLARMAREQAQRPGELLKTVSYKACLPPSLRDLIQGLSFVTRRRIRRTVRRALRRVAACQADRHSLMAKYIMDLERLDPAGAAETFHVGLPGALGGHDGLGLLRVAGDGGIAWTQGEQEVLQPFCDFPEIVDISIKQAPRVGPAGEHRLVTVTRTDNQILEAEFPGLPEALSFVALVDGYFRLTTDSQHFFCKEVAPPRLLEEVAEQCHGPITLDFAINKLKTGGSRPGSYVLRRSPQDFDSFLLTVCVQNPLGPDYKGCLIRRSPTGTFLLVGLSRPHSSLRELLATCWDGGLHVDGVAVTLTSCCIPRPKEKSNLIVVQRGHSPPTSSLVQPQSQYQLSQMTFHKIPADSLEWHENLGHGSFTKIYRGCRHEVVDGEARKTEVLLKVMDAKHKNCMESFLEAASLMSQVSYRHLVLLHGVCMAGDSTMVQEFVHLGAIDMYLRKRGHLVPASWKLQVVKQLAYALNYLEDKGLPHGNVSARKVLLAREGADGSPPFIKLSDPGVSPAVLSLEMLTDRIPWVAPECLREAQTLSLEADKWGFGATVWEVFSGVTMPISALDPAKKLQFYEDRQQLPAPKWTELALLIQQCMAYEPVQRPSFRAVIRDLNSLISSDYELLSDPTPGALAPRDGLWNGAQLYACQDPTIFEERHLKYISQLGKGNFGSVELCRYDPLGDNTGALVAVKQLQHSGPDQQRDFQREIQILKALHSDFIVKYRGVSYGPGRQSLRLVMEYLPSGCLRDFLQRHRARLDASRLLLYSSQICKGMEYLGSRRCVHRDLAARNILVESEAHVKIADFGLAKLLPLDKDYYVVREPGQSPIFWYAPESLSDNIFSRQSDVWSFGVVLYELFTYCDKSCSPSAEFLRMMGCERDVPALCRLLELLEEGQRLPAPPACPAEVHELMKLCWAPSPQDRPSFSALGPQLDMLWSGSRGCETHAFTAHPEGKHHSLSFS

NUAK1 = biological target: T4, NUAK1 (Homo sapiens, UniProt O60285)
T4 sequence (O60285 1-661): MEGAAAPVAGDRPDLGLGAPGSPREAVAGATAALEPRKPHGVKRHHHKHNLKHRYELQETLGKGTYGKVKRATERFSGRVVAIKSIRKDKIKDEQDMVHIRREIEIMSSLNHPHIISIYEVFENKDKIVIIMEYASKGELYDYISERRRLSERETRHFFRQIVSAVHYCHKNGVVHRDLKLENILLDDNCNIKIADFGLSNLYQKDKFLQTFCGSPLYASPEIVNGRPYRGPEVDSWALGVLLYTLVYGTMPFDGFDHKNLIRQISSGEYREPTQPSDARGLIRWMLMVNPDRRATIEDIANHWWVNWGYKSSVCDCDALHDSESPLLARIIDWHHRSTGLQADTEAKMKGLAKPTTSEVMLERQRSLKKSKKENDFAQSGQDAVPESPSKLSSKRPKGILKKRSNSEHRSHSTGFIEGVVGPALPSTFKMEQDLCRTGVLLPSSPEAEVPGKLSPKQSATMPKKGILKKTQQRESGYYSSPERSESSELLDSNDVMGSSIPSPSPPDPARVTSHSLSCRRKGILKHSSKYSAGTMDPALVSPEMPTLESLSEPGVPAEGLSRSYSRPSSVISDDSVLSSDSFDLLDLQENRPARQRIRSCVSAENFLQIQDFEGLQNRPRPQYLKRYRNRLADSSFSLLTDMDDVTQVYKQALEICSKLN

LRRK2 = LRRK2 (Homo sapiens, UniProt Q5S007)
JAK1 = JAK1 (Homo sapiens, UniProt P23458)
TYK2 = TYK2 (Homo sapiens, UniProt P29597)

Measured: % inhibition at 250 nM

Chain of JAK1 (P23458 whole entry): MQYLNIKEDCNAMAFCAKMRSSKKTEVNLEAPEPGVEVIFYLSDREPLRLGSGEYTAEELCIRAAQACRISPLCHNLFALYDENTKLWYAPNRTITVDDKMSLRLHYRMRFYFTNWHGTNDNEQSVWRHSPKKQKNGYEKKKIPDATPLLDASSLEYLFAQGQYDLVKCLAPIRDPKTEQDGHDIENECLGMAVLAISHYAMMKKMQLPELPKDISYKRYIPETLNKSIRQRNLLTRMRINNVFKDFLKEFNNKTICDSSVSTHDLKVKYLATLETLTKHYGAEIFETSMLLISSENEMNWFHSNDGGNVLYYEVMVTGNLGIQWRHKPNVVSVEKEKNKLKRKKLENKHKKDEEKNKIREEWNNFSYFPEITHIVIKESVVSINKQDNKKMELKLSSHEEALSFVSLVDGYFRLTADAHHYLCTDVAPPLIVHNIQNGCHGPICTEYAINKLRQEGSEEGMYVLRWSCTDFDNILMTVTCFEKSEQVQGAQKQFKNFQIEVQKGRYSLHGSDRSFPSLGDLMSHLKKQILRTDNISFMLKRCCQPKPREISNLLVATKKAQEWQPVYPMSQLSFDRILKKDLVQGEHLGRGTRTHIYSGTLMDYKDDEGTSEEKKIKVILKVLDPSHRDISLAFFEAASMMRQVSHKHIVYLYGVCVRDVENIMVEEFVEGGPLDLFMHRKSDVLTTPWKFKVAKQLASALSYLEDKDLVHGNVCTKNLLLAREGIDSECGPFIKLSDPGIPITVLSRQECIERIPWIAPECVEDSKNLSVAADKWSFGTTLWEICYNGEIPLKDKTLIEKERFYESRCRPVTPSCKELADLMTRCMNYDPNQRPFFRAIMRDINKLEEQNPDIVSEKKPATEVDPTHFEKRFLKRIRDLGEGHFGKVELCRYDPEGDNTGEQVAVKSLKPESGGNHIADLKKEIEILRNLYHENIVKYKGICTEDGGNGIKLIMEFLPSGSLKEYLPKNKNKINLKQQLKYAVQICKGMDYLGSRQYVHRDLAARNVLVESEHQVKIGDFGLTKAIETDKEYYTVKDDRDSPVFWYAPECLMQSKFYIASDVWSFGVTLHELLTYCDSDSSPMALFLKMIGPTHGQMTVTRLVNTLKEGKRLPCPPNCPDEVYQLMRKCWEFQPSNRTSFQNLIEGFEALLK
Chain of FLT3 (P36888 27-993): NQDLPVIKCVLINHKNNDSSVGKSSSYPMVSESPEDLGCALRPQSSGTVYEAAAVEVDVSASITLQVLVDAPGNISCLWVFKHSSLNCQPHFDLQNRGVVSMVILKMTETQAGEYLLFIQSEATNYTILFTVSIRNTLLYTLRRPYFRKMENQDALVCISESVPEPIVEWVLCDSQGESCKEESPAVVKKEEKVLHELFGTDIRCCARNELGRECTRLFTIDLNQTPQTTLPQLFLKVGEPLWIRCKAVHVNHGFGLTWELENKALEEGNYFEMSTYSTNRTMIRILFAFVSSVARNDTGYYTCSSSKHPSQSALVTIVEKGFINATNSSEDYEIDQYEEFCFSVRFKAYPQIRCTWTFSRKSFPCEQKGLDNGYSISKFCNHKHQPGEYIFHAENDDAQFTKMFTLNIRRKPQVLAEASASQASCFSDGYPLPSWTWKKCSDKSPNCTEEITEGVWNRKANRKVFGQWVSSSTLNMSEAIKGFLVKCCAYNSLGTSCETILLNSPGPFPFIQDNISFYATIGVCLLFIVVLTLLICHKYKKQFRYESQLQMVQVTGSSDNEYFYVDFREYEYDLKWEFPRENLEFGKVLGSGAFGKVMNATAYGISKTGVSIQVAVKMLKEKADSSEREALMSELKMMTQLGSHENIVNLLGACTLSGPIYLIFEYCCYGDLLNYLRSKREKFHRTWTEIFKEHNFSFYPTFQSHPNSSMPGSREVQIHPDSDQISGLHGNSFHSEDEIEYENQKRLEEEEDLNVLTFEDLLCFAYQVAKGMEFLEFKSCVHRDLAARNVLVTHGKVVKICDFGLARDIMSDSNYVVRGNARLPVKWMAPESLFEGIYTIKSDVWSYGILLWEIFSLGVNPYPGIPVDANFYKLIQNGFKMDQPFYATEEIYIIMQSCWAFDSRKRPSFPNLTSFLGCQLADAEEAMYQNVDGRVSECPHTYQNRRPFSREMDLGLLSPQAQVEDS
Chain of LRRK2 (Q5S007 whole entry): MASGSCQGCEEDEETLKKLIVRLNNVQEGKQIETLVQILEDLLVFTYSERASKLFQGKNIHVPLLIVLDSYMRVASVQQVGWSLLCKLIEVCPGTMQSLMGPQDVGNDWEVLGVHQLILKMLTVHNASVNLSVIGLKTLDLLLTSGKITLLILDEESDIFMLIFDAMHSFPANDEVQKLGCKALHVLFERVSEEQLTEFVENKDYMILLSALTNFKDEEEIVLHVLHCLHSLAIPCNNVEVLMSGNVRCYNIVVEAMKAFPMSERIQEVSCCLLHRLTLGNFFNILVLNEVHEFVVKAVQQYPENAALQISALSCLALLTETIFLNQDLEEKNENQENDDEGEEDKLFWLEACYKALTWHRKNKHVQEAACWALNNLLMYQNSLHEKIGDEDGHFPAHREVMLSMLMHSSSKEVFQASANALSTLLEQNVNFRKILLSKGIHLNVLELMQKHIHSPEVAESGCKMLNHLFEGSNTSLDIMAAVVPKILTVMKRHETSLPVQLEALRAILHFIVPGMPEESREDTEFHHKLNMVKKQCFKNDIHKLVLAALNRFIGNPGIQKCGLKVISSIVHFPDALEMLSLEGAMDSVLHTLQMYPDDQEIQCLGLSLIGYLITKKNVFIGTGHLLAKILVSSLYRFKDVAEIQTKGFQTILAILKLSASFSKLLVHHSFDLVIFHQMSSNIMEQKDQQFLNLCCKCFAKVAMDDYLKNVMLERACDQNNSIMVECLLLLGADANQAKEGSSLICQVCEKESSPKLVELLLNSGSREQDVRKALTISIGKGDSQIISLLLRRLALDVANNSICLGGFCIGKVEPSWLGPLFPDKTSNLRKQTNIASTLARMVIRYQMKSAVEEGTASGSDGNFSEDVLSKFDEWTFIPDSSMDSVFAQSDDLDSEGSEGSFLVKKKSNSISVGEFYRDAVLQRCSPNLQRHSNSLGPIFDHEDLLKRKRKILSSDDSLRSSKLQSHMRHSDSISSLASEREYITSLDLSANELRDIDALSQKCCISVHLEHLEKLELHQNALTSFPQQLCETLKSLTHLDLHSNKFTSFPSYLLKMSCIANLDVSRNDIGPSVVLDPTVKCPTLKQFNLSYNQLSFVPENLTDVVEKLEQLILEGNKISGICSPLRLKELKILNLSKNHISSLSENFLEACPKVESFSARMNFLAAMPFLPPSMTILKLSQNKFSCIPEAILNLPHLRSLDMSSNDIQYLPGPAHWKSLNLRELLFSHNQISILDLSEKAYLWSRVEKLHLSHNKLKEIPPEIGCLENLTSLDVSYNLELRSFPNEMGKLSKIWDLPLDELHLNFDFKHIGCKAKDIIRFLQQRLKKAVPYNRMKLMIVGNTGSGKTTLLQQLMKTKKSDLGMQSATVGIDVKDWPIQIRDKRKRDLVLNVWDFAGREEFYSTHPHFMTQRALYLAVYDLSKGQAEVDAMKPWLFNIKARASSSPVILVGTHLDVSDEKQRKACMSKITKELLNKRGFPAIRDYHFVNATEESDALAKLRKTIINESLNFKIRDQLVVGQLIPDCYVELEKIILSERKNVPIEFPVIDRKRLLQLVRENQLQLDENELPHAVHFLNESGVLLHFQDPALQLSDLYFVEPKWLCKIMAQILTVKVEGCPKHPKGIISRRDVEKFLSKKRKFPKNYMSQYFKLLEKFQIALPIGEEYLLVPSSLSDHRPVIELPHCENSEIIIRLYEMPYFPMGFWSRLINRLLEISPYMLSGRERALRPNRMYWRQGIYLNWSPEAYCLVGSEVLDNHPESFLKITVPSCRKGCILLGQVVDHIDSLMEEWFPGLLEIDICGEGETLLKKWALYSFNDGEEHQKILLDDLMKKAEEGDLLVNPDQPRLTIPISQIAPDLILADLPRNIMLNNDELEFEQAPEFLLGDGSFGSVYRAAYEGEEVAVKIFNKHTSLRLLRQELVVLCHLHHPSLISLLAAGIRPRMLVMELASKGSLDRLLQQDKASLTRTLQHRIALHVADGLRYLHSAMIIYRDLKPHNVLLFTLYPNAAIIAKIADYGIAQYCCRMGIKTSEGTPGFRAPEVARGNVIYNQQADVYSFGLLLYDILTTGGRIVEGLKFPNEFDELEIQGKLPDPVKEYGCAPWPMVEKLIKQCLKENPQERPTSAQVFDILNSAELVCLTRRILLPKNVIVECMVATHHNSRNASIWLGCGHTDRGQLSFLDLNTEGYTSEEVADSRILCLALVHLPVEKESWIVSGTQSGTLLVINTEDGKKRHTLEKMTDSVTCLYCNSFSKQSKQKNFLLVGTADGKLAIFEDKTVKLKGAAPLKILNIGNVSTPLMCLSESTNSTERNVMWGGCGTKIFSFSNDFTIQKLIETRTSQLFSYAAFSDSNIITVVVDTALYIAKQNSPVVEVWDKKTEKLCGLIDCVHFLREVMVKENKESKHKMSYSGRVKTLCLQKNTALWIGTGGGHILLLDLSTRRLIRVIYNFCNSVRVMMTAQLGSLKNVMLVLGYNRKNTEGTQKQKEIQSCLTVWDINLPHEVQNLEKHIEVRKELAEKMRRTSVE

CN1CCN(c2ccc(Nc3ncc(Cl)c(NC[C@H]4CCCO4)n3)cc2)CC1 [(R)-9bMS]
> 90: all assays above
